Values of other authors, collected in patent US20240269238A1, “Therapeutic Regimens and Methods for Reducing Body Weight in a Subject with Fatty Liver Disease using a GLP-1R and GCGR Agonist” (Spitfire Pharma LLC, priority 2022, published 2024).

Tests used:
[1] = over 26 weeks of administration; cited from earlier work
liver fat content = conditions: 6 weeks; cited from earlier work

For `CCCCCCCCCCCCCCCC(=O)N[C@@H](CCC(=O)NCCCC[C@H](NC(=O)[C@H](CC(=O)O)NC(=O)[C@H](CO)NC(=O)[C@@H](NC(=O)[C@H](Cc1ccccc1)NC(=O)[C@@H](NC(=O)CNC(=O)[C@H](CCC(N)=O)NC(=O)[C@H](CO)NC(=O)[C@@H](N)Cc1c[nH]cn1)[C@@H](C)O)[C@@H](C)O)C(=O)N[C@@H](CO)C(=O)N[C@@H](CCC(=O)O)C(=O)N[C@@H](Cc1ccc(O)cc1)C(=O)N[C@@H](CC(C)C)C(=O)N[C@@H](CC(=O)O)C(=O)N[C@@H](CO)C(=O)N[C@@H](CCC(=O)O)C(=O)N[C@@H](CCCNC(=N)N)C(=O)N[C@@H](C)C(=O)N[C@@H](CCCNC(=N)N)C(=O)N[C@@H](CC(=O)O)C(=O)N[C@@H](Cc1ccccc1)C(=O)N[C@H](C(=O)N[C@@H](C)C(=O)N[C@@H](Cc1c[nH]c2ccccc12)C(=O)N[C@@H](CC(C)C)C(=O)N[C@@H](CCC(=O)O)C(=O)N[C@@H](C)C(=O)NCC(=O)NCC(=O)O)C(C)C)C(=O)O` [cotadutide], the weight loss [1] is given as 5.4% and the “reduction in liver fat content” value (liver fat content) is given as 39%.
